Laboratory results taken from a melting point compilation (Tetko et al.; mined from patent text by program, amines drawn as free bases though some values may be those of a salt).

| SMILES | melting point |
| --- | --- |
| CCOC(=O)c1ncn2c1c(=O)n(C)c1ccccc12 | 218 to 220 °C |
| Cc1ccc(S(=O)(=O)ON=C(C#N)c2ccc(F)cc2)cc1 | 129 to 140 °C |
| COc1cc2cc(C(=O)N3CC(CCl)c4c3cc(NC(=O)OCc3ccc([N+](=O)[O-])cc3)c3ccccc43)[nH]c2c(OC)c1OC (stereo not drawn) | 191 to 192 °C |
| CCNC(=O)[C@H](C)C[C@H](O)[C@H](CC1CCCCC1)NC(=O)[C@H](Cc1cscn1)NC(=O)[C@@H](CC(=O)N(C)Cc1ccccc1)Cc1ccccc1 | 148 to 150 °C |
| c1ccc2c(c1)-c1cccc3c(NCCCCNc4nccc5ccccc45)nnc-2c13 | 95 to 105 °C |
| COC(=O)CCCCCNC(=O)c1csc(NC(=O)NCc2ccccc2)n1 | 140 °C |
| C#CCOc1cccc(-c2nc3cnncc3[nH]2)c1OC | 224 °C |
| N#Cc1cnn(-c2ccc(OC(F)(F)F)cc2Cl)c1Br | 83 °C |
| CC(=O)Nc1cccc(-c2ccc(C)c(COc3cccc4ccc(C)nc34)c2C)c1 | 197 to 199 °C |
| COc1cc(Nc2c(C#N)cnc3sc(I)cc23)c(Cl)cc1Cl | 231 to 233 °C |
| CCOC(=O)CCc1cn(-c2ccc(C(F)(F)F)cn2)nc1C | 50 to 51 °C |
| Cc1nc2cccc(CCN3CCC(c4noc5cc(F)ccc45)CC3)c2c(=O)[nH]1 | 164 to 165 °C |
| Nc1c(Br)cc(S(=O)(=O)C(F)(F)F)cc1[N+](=O)[O-] | 147 °C |
| O=C1CC2(CCc3cc4ccccc4n3C2)C(=O)N1 (stereo not drawn) | 208 to 210 °C |
| CC1(C)Oc2ccc(C#N)cc2C(OC2=CC(=O)CC2)C1(C)O (stereo not drawn) | 204 to 206 °C |
| CCCCCCCCCCCCCCCCCC(=O)NCC(C)(C)CO | 44 °C |
| COc1ccc2cc(-c3ccc(S(C)=O)cc3)ccc2n1 (stereo not drawn) | 164 to 166 °C |
| N#Cc1ccc(Nn2cnnc2)cc1-c1ccoc1 | 199 to 200 °C |
| Nc1ccc(C(c2cccc(N)c2)(C(F)(F)F)C(F)(F)F)cc1 | 142 to 143 °C |

| SMILES | melting point |
| --- | --- |
| COc1cc(NS(=O)(=O)c2cccs2)c2[nH]c(C3=NCCS3)cc2c1 | 188 to 189 °C |
| c1ccc2c(c1)OCCc1c-2n(CCCCCCN2CCCCC2)c2ccccc12 | 110 °C |
| CCCN(Cc1ccc(-c2ccccc2-c2nnn[nH]2)cc1)c1ncccc1C(=O)O | 202 to 204 °C |
| Cc1nc(N)nc(CCCCCCCCCCO)c1O | 103 to 104 °C |
| CCc1nc(/C=C/c2cn(-c3ccccc3)nc2OCc2ccc(OCc3nc(-c4ccc(C(=O)O)s4)oc3C)c(OC)c2)cs1 | 150 to 151 °C |
| CC(C)c1cccc(CC(=O)O)c1OCCCc1cn(-c2ccc(C(F)(F)F)cn2)nc1C(C)C | 108 to 109 °C |
| CCOC(=O)c1ccccc1C(=O)c1cccc(NC(=O)c2ccn3c2CSC3c2cccnc2)c1 (stereo not drawn) | 150 °C |
| COC(=O)CCNc1ccccc1CNC(=O)C1Cc2ccccc2N1S(=O)(=O)c1ccc(-c2ccc(F)cc2Cl)cc1 (stereo not drawn) | 70 to 73 °C |
| O=C(O)c1cc(S(=O)(=O)N2CCC(Br)C(Br)C2)ccc1Cl (stereo not drawn) | 176 to 178 °C |
| O=C1C2CC3CC1CC(c1cc(Br)ccc1O)(C3)C2 | 287 to 289 °C |
| COC(=O)c1cccc(OCc2cc(Br)cs2)c1C(=O)OC | 65 °C |
| CN(C)C1CCc2[nH]c3cc(F)ccc3c2C1 (stereo not drawn) | 174 to 176 °C |
| COCCCOc1cc(C[C@@H](C(=O)O)C(C)C)ccc1OC | 43.5 to 44 °C |
| CC/C=C\Cn1c(=S)sc2c(=O)[nH]c(N)nc21 | > 320 °C |
| O=C(O)CN(CC(=O)O)CC(c1ccc([N+](=O)[O-])cc1)N(CC(=O)O)CC(=O)O (stereo not drawn) | 171 to 174 °C |
| CCC1CCCCN1CCC(=O)N1c2ccccc2NC(=O)c2ccccc21 (stereo not drawn) | 147 to 148 °C |
| COC[C@@H]1CC[C@H](c2ccc(F)cc2)N1S(=O)(=O)c1ccc(C)cc1 (racemic) | 152 °C |
| CCOc1nc2c(C(=O)OC)sc(C)c2[nH]1 | 209 to 210 °C |
| CCc1c(-c2ccc(O)cc2)c2ccc3c(N)ccc1n32 | 147 to 149 °C |
